Experiments:
PDZ1-2 of PSD-95 = molecular target: T1, PDZ1-2 of PSD-95 (Homo sapiens, UniProt P78352); test: Isothermal titration calorimetry (ITC); type: binding; details: 25° C., PBS pH 7.4; mean ± SEM; read-out: ITC Kd PDZ12
T1 construct: PDZ1-2 (residues 61-249) tandem; made in house; host or cells: E. coli BL21-DE3 pLysS
Source text: This technique (Pierce, M. et al., 1999., Methods, p. 213-221) provides an exact determination of the affinity of a ligand for its target protein, as well as measuring the thermodynamic properties of the interaction, including enthalpy (ΔH), entropy (ΔS) and free energy (ΔG) together with the stoichiometric relationship of ligand binding. In this method, un-labeled ligand is titrated into a solution of un-labeled PDZ protein located in the calorimeter. Heat generated upon protein recognition is measured (ΔH) during the titration of the ligand and the PDZ protein until saturation is achieved, and the heat-exchange upon further ligand addition is negligible. Based on the amount of ligand needed to achieve saturation an affinity constant (Kd) is calculated and in addition ΔH, ΔS, ΔG and stoichiometry are determined.
Calorimetry experiments were performed on a microcalorimeter (Microcal, MA, USA). The ligands were titrated directly into the PDZ solution. All ligands and PDZ proteins were solubilized in PBS buffer (137 mM NaCl, 2.7 mM KCl, 10 mM Na2HPO4, 2 mM KH2PO4, pH 7.4) and when necessary pH was adjusted to 7.4 within 0.02 pH units after solubilization. The concentration of peptide and PDZ in solution was quantified by amino acid analysis. The calorimetry experiments were conducted at 25° C., where the PDZ1-2 concentration was generally adjusted to about 20 μM (200 μL in calorimeter) and the ligand concentration to between 200-2500 μM (injected to the protein as 20×2 μL). Experiments were designed so that c-value (c-value=Ka*[Protein]*n; where Ka is the affinity association constant, [Protein] means protein concentration, and n is the stoichiometry of the reaction) was within 1-1000. The analysed solution was stirred at 1000 rpm, with a reference power of 6 μcal/s. Heats of dilution were initially determined by titrating the ligand into buffer and subtracting these baseline values from the observed “heat values”. The data from each titration experiment were collected by ORIGIN 7.0 (Microcal, MA, USA), which was also used to determine the thermodynamic properties of ligand binding using non-linear least-squares fitting assuming a single-site model.

[1] = Human blood plasma stability assay; type: in vitro ADME
Method: In this assay, the half-life (T1/2) of a compound in blood plasma is measured in vitro, whereby its susceptibility to degradation by proteases, peptidases and general plasma contents is quantified.
Compounds of interest were dissolved in human blood plasma (270 μl; 3H Biomedical, Sweden, cat no 1300-1-P50) to a concentration of 0.25 mM (30 μL of 2.5 mM) and incubated at 37° C. Aliquots (30 μl) were removed at various time intervals (0, 5, 10, 20, 40, 80, 160, 320, 960, 1280, 2550, 4560 and 7240 min) and quenched with 60 μL trichloroacetic acid (aq., 5%). The aliquots were vortexed, and incubated for at least 15 min, at 4° C. prior to centrifugation at 18,000 g for 2 min and the supernatant was analyzed by RP-HPLC to quantify the remaining compound (absorbance at 218 nm).

PDZ1-2 tandem of PSD-95 = molecular target: T2, PDZ1-2 tandem of PSD-95 (Homo sapiens, UniProt P78352); test: FP heterologous competition binding assay; details: mean ± SEM
T2 construct: PDZ1-2 (residues 61-249) tandem; made in house; host or cells: E. coli BL21-DE3 pLysS
Source text: (§1) Determined IC50 values may be converted to Ki values.^5 Suitable fluorophores include either 5-FAM or Cy5, which may be coupled to a tripeptide (KSG or CSG) linker attached to the N-terminus of the undecapeptide, to give 5-FAM-NR2B, Cy5-NR2B, 5-FAM-CRIPT and Cy5-CRIPT. The 5-FAM fluorophore may be attached to the undecapeptides by coupling with HATU. The Cy5 fluorophore may be conjugated to the undecapeptides by coupling Cy5-maleimide to the cysteine side chain of the tripeptide sequence CSG attached to the N-terminus of the peptide, as detailed in the Methodology section.
(§2) To measure the affinities between non-fluorescent peptides and PDZ domains, heterologous competition bindings assay were performed. This was done by adding increasing concentrations of peptide to a fixed concentration of Cy5-NR2B, 5-FAM-NR2B, Cy5-CRIPT or 5-FAM-CRIPT (50 nM) and PDZ (20 μM for PDZ1, 3 μM for PDZ2 and 1-2 and 5 μM for PDZ3) in the same TBS buffer and conditions as described above. FP values were then fitted to the general equation: Y=Bottom+(Top−Bottom)/[1[…](10̂^X-logIC50)], where X is the logarithmic value of peptide concentration. Hereby the IC50 value was obtained, which is used to calculate the theoretical competitive inhibition constant, Ki.^5
(§3) A convenient and reliable way to examine interactions between peptide analogues and PDZ domains is by using a fluorescence polarization (FP) assay. The three PDZ domains, PDZ1-3, of PSD-95 were expressed individually as set out above, while PDZ1-2 was also expressed as a tandem construct. […] IC50 values were then converted to Ki values.^5

PDZ2 of PSD-95 = molecular target: T3, PDZ2 of PSD-95 (Homo sapiens, UniProt P78352); test: FP heterologous competition binding assay; details: for Ki: FP competition, mean ± SEM, NA = no activity/affinity
T3 construct: PDZ2 (residues 155-249); made in house; host or cells: E. coli BL21-DE3 pLysS
Source text: as §1, §2, §3

PDZ3 of PSD-95 = molecular target: T4, PDZ3 of PSD-95 (Homo sapiens, UniProt P78352); test: FP heterologous competition binding assay; details: FP competition; mean ± SEM; NA = no activity/affinity
T4 construct: PDZ3 (residues 309-401); made in house; host or cells: E. coli BL21-DE3 pLysS
Source text: as §1, §2, §3

PDZ1 of PSD-95 = molecular target: T5, PDZ1 of PSD-95 (Homo sapiens, UniProt P78352); test: FP heterologous competition binding assay; details: FP competition; mean ± SEM; NA = no activity/affinity
T5 construct: PSD-95 PDZ1 (residues 61-151); made in house; host or cells: E. coli BL21-DE3 pLysS
Source text: as §1, §2, §3

[2] = test system: cultured cortical neurons; test: Neuronal NMDA excitotoxicity assay (LDH release); type: cell-based, rat; details: 500 nM
Source text: When cultured cortical neurons are exposed to high concentrations of NMDA, an excitoxic cascade is initiated, which leads to cellular damage and ultimately neuronal cell death. Consequently, the cell membranes are destroyed, and cytoplasmic enzymes are released into the cell surroundings. The extent of this neuronal cell death can be quantified by measuring the release of cytoplasmic lactate dehydrogenase (LDH) enzyme into the cell medium. The compounds of interest and control compound (3) are investigated with respect to their abilities to attenuate NMDA-mediated toxicity. Compounds that are active in this assay are both membrane permeable, and can prevent ex vivo excitotoxicity, which are important properties for therapeutics towards excitotoxicity mediated diseases.
Cortical neurons were surgically removed from rats (e.g. E21) and then cultured for 7-9 days in vitro in Neurobasal A medium with B-27 supplement (each supplied by Invitrogen), further supplemented with 1 mM glutamine, 50 units/ml penicillin, and 50 μg/ml streptomycin. The following steps were then performed:
1. Samples of the cultured cortical neurons were removed from the Neurobasal-A based culture medium, at various time points prior to exposure to compound, and placed into “transfection medium” ([…]; as defined by Bading et al (1993) Science 260, 181-186) comprising: 10% modified Minimum Essential Medium (supplied by Invitrogen; product no: 21090022; containing Earles salt, but no L-glutamine), 90% Salt-Glucose-Glycine (SGG) medium: (114 mM NaCl, 0.219% NaHCO3, 5.292 mM KCL, 1 mM MgCl2, 2 mM CaCl2, 10 mM HEPES, 1 mM Glycine, 30 mM glucose, 0.5 mM sodium pyruvate, 0.1% Phenol Red), insulin-transferrin-selenite supplement (supplied by Sigma: 7.5 μg insulin/ml, 7.5 μg transferring/ml and 7.5 ng sodium selenite/ml); with a final osmolarity of 325 mosm/l. All subsequent steps were performed in this TM medium. 2. Samples of neurons are exposed to an NMDAR/PSD-95 inhibitor of the invention (compounds 40, 52-90) at a final concentration of between 0.05-50 μM for a period of between 0.5 to 1.5 hours. […] 3. Each sample of neurons was washed at least one time in TM medium to remove the NMDAR/PSD-95 inhibitor, and placed in TM medium. 4. After various periods of time, the samples of neurons were exposed to NMDA at a concentration of between 10-100 μM for a period of 0.5 to 1.5 hours, preferably 1 hour, after which the samples were again placed in TM medium for 24 hours. 5. LDH in the cell medium was quantified using commercial available kits (e.g. Promega Biotech AB, cat no G1780).

PSD-95's PDZ2 domain = molecular target: T6, PSD-95's PDZ2 domain (Homo sapiens, UniProt P78352); test: Polyhistidine pull-down assay; type: binding; details: 200 μM
T6 construct: PDZ2 (residues 155-249); His-tag (thrombin-cleavable) (cleaved yes); made in house; host or cells: E. coli (as for the other PDZ constructs)
Source text: The polyhistidine pull-down is an in vitro technique that consists of a polyhistidine-tagged bait NRB2 or CRIPT protein C-terminal domain (e.g NR2B WT peptide with the sequence [sequence]) that can be used to identify competitors of a PDZ domain-binding partner (PDZ domain of PSD-95) (the prey). The bait protein is immobilized on cobalt chelated affinity gel. The bait serves as the secondary affinity support for the protein partner to the bait and for identifying competitors that can displace the prey from the bait. The competitors are peptide analogues, specifically an NMDAR/PSD-95 inhibitor of the present invention. PPIs, between the prey and bait are analyzed by chemically dissociating/eluting the bound prey (PDZ domain or peptide analogue) and visualizing the prey by SDS-PAGE and associated detection methods depending on the sensitivity requirements of the interacting proteins. These methods include Coomassie® Dye, silver, and zinc staining; western blotting; and [^35S] radioisotopic detection. Alternatively, the displaced prey detected on the gel, can be isolated from a polyacrylamide gel, and further analyzed. […]
As bait, a polyhistidine NR2B WT peptide with the sequence [sequence] was synthesized. […] Eluted PDZ2 was analyzed by SDS-PAGE and silver staining.

| SMILES | Kd (PDZ1-2 of PSD-95) | degradation in human blood plasma, in words [1] | half-life at […] ([1]; human, plasma, Blood plasma half life (T1/2)) | Ki (PDZ1-2 tandem of PSD-95) | Ki (PDZ2 of PSD-95) | Ki (PDZ3 of PSD-95) | Ki (PDZ1 of PSD-95) | effect on NMDA-mediated excitotoxicity, in words [2] | fold increase in Ki (loss of affinity) compared to NR2B peptide (1), PDZ2 (PDZ2 of PSD-95) | inhibition of PDZ2 binding to NR2B WT bait in pull-down, in words (PSD-95's PDZ2 domain) |
| --- | --- | --- | --- | --- | --- | --- | --- | --- | --- | --- |
| CC[C@H](C)[C@H](NC(=O)CCOCCOCCOCCOCCOCCC(=O)N[C@H](C(=O)N[C@@H](CCC(=O)O)C(=O)N[C@@H](CO)C(=O)N[C@@H](CC(=O)O)C(=O)N[C@H](C(=O)O)C(C)C)[C@@H](C)CC)C(=O)N[C@@H](CCC(=O)O)C(=O)N[C@@H](CO)C(=O)N[C@@H](CC(=O)O)C(=O)N[C@H](C(=O)O)C(C)C [(IESDV)2PEG4 (78), (IESDV)2PEG4] | 0.032 ± 0.01 µM | no significant degradation could be detected over a time period of 6 days | > 133 h | ~0.1 µM | – | – | – | – | – | – |
| CC(C)C[C@H](NC(=O)CNC(=O)[C@H](CO)NC(=O)[C@@H](N)CCCCN)C(=O)N[C@@H](CC(=O)O)C(=O)N[C@H](C(=O)N[C@@H](CCCCN)C(=O)N[C@@H](CC(N)=O)C(=O)N[C@@H](Cc1ccc(O)cc1)C(=O)N[C@@H](CCCCN)C(=O)N[C@@H](CCC(N)=O)C(=O)N[C@H](C(=O)N[C@@H](CO)C(=O)N[C@H](C(=O)O)C(C)C)[C@@H](C)O)[C@@H](C)O [CRIPT (2), reference compound] | – | – | – | 45 ± 4.1 µM | 25 ± 1.6 µM | 2.1 ± 0.15 µM | 97 ± 18 µM | – | – | – |
| CC(C)[C@H](NC(=O)[C@H](C)NC(=O)[C@@H](NC(=O)[C@H](C)NCCC1CCCCC1)[C@@H](C)O)C(=O)O [ATAV (73)] | – | – | – | – | – | – | 8.9 ± 1 µM | inhibit neuronal excitotoxicity, as efficiently as the clinical candidate Tat-N2B (3) | – | – |
| CN[C@@H](CCC(=O)O)C(=O)N[C@H](C(=O)N[C@@H](C)C(=O)N[C@H](C(=O)O)C(C)C)C(C)O (stereo partly drawn) [Compound 40, N-Methyl-ETAV] | – | – | – | – | 8.9 ± 0.5 µM | 78 ± 1.5 µM | 11 ± 0.47 µM | – | 2 fold | very effective inhibitor |

Source: patent US20160176924A1, “MODIFIED PEPTIDES AS POTENT INHIBITORS OF THE PSD-95/NMDA RECEPTOR INTERACTION” (priority 2008, published 2016)
